Activity calls are given as the source filed them. No cut-off for these calls is given here.
Assays:
[1] = Biodistribution in mouse Cloudman S91 tumor bearing DBA2 mouse skin at 10 mg/kg, ip after 48 hrs; assay type: ADME, organism-based, Zone of skin; parameters: dose 10 mg/kg, route intraperitoneal; conditions: read-out: Drug uptake
[2] = Biodistribution in mouse Cloudman S91 tumor bearing DBA2 mouse liver at 10 mg/kg, ip after 24 hrs; assay type: ADME, organism-based; parameters: dose 10 mg/kg, route intraperitoneal; conditions: read-out: Drug uptake
[3] = Biodistribution in mouse Cloudman S91 tumor bearing DBA2 mouse blood at 10 mg/kg, ip after 12 hrs; assay type: ADME, organism-based; parameters: dose 10 mg/kg, route intraperitoneal; conditions: read-out: Drug uptake
[4] = Biodistribution in mouse Cloudman S91 tumor bearing DBA2 mouse lungs at 10 mg/kg, ip after 72 hrs; assay type: ADME, organism-based; parameters: dose 10 mg/kg, route intraperitoneal; conditions: lung, read-out: Drug uptake
[5] = Biodistribution in mouse Cloudman S91 tumor bearing DBA2 mouse lungs at 10 mg/kg, ip after 2 hrs; assay type: ADME, organism-based; parameters: dose 10 mg/kg, route intraperitoneal; conditions: lung, read-out: Drug uptake
[6] = Biodistribution in mouse Cloudman S91 tumor bearing DBA2 mouse skin at 10 mg/kg, ip after 24 hrs; assay type: ADME, organism-based, Zone of skin; parameters: dose 10 mg/kg, route intraperitoneal; conditions: read-out: Drug uptake
[7] = Biodistribution in mouse Cloudman S91 tumor bearing DBA2 mouse spleen at 10 mg/kg, ip after 2 hrs; assay type: ADME, organism-based; parameters: dose 10 mg/kg, route intraperitoneal; conditions: read-out: Drug uptake
[8] = Biodistribution in mouse Cloudman S91 tumor bearing DBA2 mouse intestine at 10 mg/kg, ip after 6 hrs; assay type: ADME, organism-based; parameters: dose 10 mg/kg, route intraperitoneal; conditions: read-out: Drug uptake
[9] = Biodistribution in mouse Cloudman S91 tumor bearing DBA2 mouse lungs at 10 mg/kg, ip after 12 hrs; assay type: ADME, organism-based; parameters: dose 10 mg/kg, route intraperitoneal; conditions: lung, read-out: Drug uptake
[10] = Biodistribution in mouse Cloudman S91 tumor bearing DBA2 mouse kidneys at 10 mg/kg, ip after 12 hrs; assay type: ADME, organism-based; parameters: dose 10 mg/kg, route intraperitoneal; conditions: kidney, read-out: Drug uptake
[11] = Biodistribution in mouse Cloudman S91 tumor bearing DBA2 mouse spleen at 10 mg/kg, ip after 24 hrs; assay type: ADME, organism-based; parameters: dose 10 mg/kg, route intraperitoneal; conditions: read-out: Drug uptake
[12] = Biodistribution in mouse Cloudman S91 tumor bearing DBA2 mouse skin at 10 mg/kg, ip after 12 hrs; assay type: ADME, organism-based, Zone of skin; parameters: dose 10 mg/kg, route intraperitoneal; conditions: read-out: Drug uptake
[13] = Biodistribution in mouse Cloudman S91 tumor bearing DBA2 mouse muscle at 10 mg/kg, ip after 12 hrs; assay type: ADME, organism-based, Muscle tissue; parameters: dose 10 mg/kg, route intraperitoneal; conditions: read-out: Drug uptake
[14] = Biodistribution in mouse Cloudman S91 tumor bearing DBA2 mouse muscle at 10 mg/kg, ip after 2 hrs; assay type: ADME, organism-based, Muscle tissue; parameters: dose 10 mg/kg, route intraperitoneal; conditions: read-out: Drug uptake
[15] = Biodistribution in mouse Cloudman S91 tumor bearing DBA2 mouse kidneys at 10 mg/kg, ip after 6 hrs; assay type: ADME, organism-based; parameters: dose 10 mg/kg, route intraperitoneal; conditions: kidney, read-out: Drug uptake
[16] = Biodistribution in mouse Cloudman S91 tumor bearing DBA2 mouse tumour at 10 mg/kg, ip after 2 hrs; assay type: ADME, organism-based, Neoplasm; parameters: dose 10 mg/kg, route intraperitoneal; conditions: read-out: Drug uptake
[17] = Biodistribution in mouse Cloudman S91 tumor bearing DBA2 mouse heart at 10 mg/kg, ip after 12 hrs; assay type: ADME, organism-based; parameters: dose 10 mg/kg, route intraperitoneal; conditions: read-out: Drug uptake
[18] = Biodistribution in mouse Cloudman S91 tumor bearing DBA2 mouse heart at 10 mg/kg, ip after 48 hrs; assay type: ADME, organism-based; parameters: dose 10 mg/kg, route intraperitoneal; conditions: read-out: Drug uptake
[19] = Biodistribution in mouse Cloudman S91 tumor bearing DBA2 mouse muscle at 10 mg/kg, ip after 24 hrs; assay type: ADME, organism-based, Muscle tissue; parameters: dose 10 mg/kg, route intraperitoneal; conditions: read-out: Drug uptake
[20] = Biodistribution in mouse Cloudman S91 tumor bearing DBA2 mouse tumour at 10 mg/kg, ip after 72 hrs; assay type: ADME, organism-based, Neoplasm; parameters: dose 10 mg/kg, route intraperitoneal; conditions: read-out: Drug uptake
[21] = Biodistribution in mouse Cloudman S91 tumor bearing DBA2 mouse liver at 10 mg/kg, ip after 12 hrs; assay type: ADME, organism-based; parameters: dose 10 mg/kg, route intraperitoneal; conditions: read-out: Drug uptake
[22] = Biodistribution in mouse Cloudman S91 tumor bearing DBA2 mouse heart at 10 mg/kg, ip after 24 hrs; assay type: ADME, organism-based; parameters: dose 10 mg/kg, route intraperitoneal; conditions: read-out: Drug uptake
[23] = tested on: S91; assay: Photodynamic efficacy against mouse Cloudman S91 cells allografted in DBA2 mouse assessed as time of tumor growth delay at 10 mg/kg, ip followed by irradiated with 96 J cm'-2 laser light for 20 mins; assay type: functional; conditions: route intraperitoneal
[24] = Biodistribution in mouse Cloudman S91 tumor bearing DBA2 mouse blood at 10 mg/kg, ip after 72 hrs; assay type: ADME, organism-based; parameters: dose 10 mg/kg, route intraperitoneal; conditions: read-out: Drug uptake
[25] = Biodistribution in mouse Cloudman S91 tumor bearing DBA2 mouse blood at 10 mg/kg, ip after 24 hrs; assay type: ADME, organism-based; parameters: dose 10 mg/kg, route intraperitoneal; conditions: read-out: Drug uptake
[26] = Biodistribution in mouse Cloudman S91 tumor bearing DBA2 mouse intestine at 10 mg/kg, ip after 12 hrs; assay type: ADME, organism-based; parameters: dose 10 mg/kg, route intraperitoneal; conditions: read-out: Drug uptake
[27] = Biodistribution in mouse Cloudman S91 tumor bearing DBA2 mouse skin at 10 mg/kg, ip after 72 hrs; assay type: ADME, organism-based, Zone of skin; parameters: dose 10 mg/kg, route intraperitoneal; conditions: read-out: Drug uptake
[28] = tested on: S91; assay: Photodynamic efficacy against mouse Cloudman S91 cells allografted in DBA2 mouse assessed as disappearance of tumor at 10 mg/kg, ip followed by irradiated with 96 J cm'-2 laser light for 20 mins; assay type: functional, organism-based; parameters: dose 10 mg/kg
[29] = Biodistribution in mouse Cloudman S91 tumor bearing DBA2 mouse lungs at 10 mg/kg, ip after 6 hrs; assay type: ADME, organism-based; parameters: dose 10 mg/kg, route intraperitoneal; conditions: lung, read-out: Drug uptake
[30] = tested on: Nucleic Acid; assay: Ratio of drug level in tumor to skin in ip dosed human HT29 tumor bearing mouse; assay type: ADME, organism-based; conditions: in vivo
[31] = Biodistribution in mouse Cloudman S91 tumor bearing DBA2 mouse heart at 10 mg/kg, ip after 72 hrs; assay type: ADME, organism-based; parameters: dose 10 mg/kg, route intraperitoneal; conditions: read-out: Drug uptake
[32] = Biodistribution in mouse Cloudman S91 tumor bearing DBA2 mouse kidneys at 10 mg/kg, ip after 2 hrs; assay type: ADME, organism-based; parameters: dose 10 mg/kg, route intraperitoneal; conditions: kidney, read-out: Drug uptake
[33] = n-Octanol-water partition coefficient, log P of the compound; assay type: physicochemical
[34] = Biodistribution in mouse Cloudman S91 tumor bearing DBA2 mouse liver at 10 mg/kg, ip after 2 hrs; assay type: ADME, organism-based; parameters: dose 10 mg/kg, route intraperitoneal; conditions: read-out: Drug uptake
[35] = Biodistribution in mouse Cloudman S91 tumor bearing DBA2 mouse skin at 10 mg/kg, ip after 2 hrs; assay type: ADME, organism-based, Zone of skin; parameters: dose 10 mg/kg, route intraperitoneal; conditions: read-out: Drug uptake
[36] = tested on: S91; assay: Photodynamic efficacy against mouse Cloudman S91 cells allografted in DBA2 mouse assessed as tumor growth delay at 10 mg/kg, ip followed by irradiated with 96 J cm'-2 laser light for 20 mins relative to sulfonated bacteriochlorin; assay type: functional; conditions: route intraperitoneal
[37] = Biodistribution in mouse Cloudman S91 tumor bearing DBA2 mouse kidneys at 10 mg/kg, ip after 48 hrs; assay type: ADME, organism-based; parameters: dose 10 mg/kg, route intraperitoneal; conditions: kidney, read-out: Drug uptake

CCNS(=O)(=O)c1ccc(Cl)c(-c2c3nc(c(-c4c(Cl)ccc(S(=O)(=O)NCC)c4Cl)c4ccc([nH]4)c(-c4c(Cl)ccc(S(=O)(=O)NCC)c4Cl)c4nc(c(-c5c(Cl)ccc(S(=O)(=O)NCC)c5Cl)c5ccc2[nH]5)CC4)CC3)c1Cl
concentration at 48 h [1]: 80 ng/g | concentration at 24 h [2]: 2000 ng/g | concentration at 12 h [3]: 970 ng/g | concentration at 72 h [4]: 300 ng/g | concentration at 2 h [5]: 200 ng/g | concentration at 24 h [6]: 170 ng/g | concentration at 2 h [7]: 2300 ng/g | concentration at 6 h [8]: 1800 ng/g | concentration at 12 h [9]: 300 ng/g | concentration at 12 h [10]: 300 ng/g | concentration at 24 h [11]: 10000 ng/g | concentration at 12 h [12]: 180 ng/g | concentration at 12 h [13]: 120 ng/g | concentration at 2 h [14]: 30 ng/g | concentration at 6 h [15]: 400 ng/g | concentration at 2 h [16]: 40 ng/g | concentration at 12 h [17]: 200 ng/g | concentration at 48 h [18]: 300 ng/g | concentration at 24 h [19]: 130 ng/g | concentration at 72 h [20]: 150 ng/g | concentration at 12 h [21]: 4000 ng/g | concentration at 24 h [22]: 800 ng/g | Time [23]: 44 days | concentration at 72 h [24]: 50 ng/g | concentration at 24 h [25]: 230 ng/g | concentration at 12 h [26]: 1200 ng/g | concentration at 72 h [27]: 19 ng/g | Activity [28]: Active | concentration at 6 h [29]: 300 ng/g | Ratio [30]: 1 | concentration at 72 h [31]: 200 ng/g | concentration at 2 h [32]: 100 ng/g | logP [33]: 1.83 | concentration at 2 h [34]: 980 ng/g | concentration at 2 h [35]: 50 ng/g | fold change (FC) [36]: 1.6 | concentration at 48 h [37]: 400 ng/g
